Results taken from ChEMBL document CHEMBL1151644, “Alkaloids and coumarins of Casimiroa edulis” (1985).

Experiments:
Rattus norvegicus [1] = assay: Antiinflammatory activity against carrageenan-induced hind paw edema in rat at 100 mg/kg; type: functional
Rattus norvegicus [2] = assay: Diuretic activity in rat at 125 mg/kg; type: functional, Urine

Structure (SMILES)	Activity (Rattus norvegicus [1])	Activity (Rattus norvegicus [2])
CCCCCCCCCCCCCCCCCCCCCCCCCCCCCCC [HENTRIACONTANE]	30.4%	84%
COc1c2ccoc2c(OC)c2oc(=O)ccc12 [ISOPIMPINELLIN]	30.4%	84%
